Measured values published in PubChem BioAssay (NCI).
Several values for one entry are separate records, joined by “and”; a condition that tells them apart may be missing. Equal entries are not always repeated.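 Compound exposure: 48 hours, 5 concentrations, 96-well plates. GI50 marks 50% less growth. TGI: concentration producing complete growth inhibition.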

How the values were obtained:
Assay in all cases: DTP human tumour cell line panel, 48 h
SN12C renal = test system: SN12C renal
NCI-H23 lung = test system: NCI-H23 lung
HCT-15 colon = test system: HCT-15 colon
KM12 colon = test system: KM12 colon
RXF 393 renal = test system: RXF 393 renal
UACC-62 melanoma = test system: UACC-62 melanoma
HCT-116 colon = test system: HCT-116 colon
IGROV1 ovarian = test system: IGROV1 ovarian
BT-549 breast = test system: BT-549 breast
SNB-75 CNS = test system: SNB-75 CNS

| SMILES | TGI (SN12C renal) | TGI (NCI-H23 lung) | TGI (HCT-15 colon) | TGI (KM12 colon) | TGI (RXF 393 renal) | TGI (UACC-62 melanoma) | TGI (HCT-116 colon) | TGI (IGROV1 ovarian) | TGI (BT-549 breast) | TGI (SNB-75 CNS) | GI50 (SN12C renal) | GI50 (NCI-H23 lung) | GI50 (RXF 393 renal) | GI50 (SNB-75 CNS) | GI50 (UACC-62 melanoma) | GI50 (IGROV1 ovarian) | GI50 (HCT-15 colon) | GI50 (KM12 colon) |
| --- | --- | --- | --- | --- | --- | --- | --- | --- | --- | --- | --- | --- | --- | --- | --- | --- | --- | --- |
| CC1(C)Cc2ccccc2C(C)(Cl)C(=O)N1 (stereo not drawn) | > 10 µM | > 10 µM | > 10 µM | > 10 µM | > 10 µM | > 10 µM | > 10 µM | > 10 µM | > 10 µM | – | – | – | – | – | – | – | – | – |
| Cc1noc(-c2ccc(C(=O)O)[nH]2)c1Br | – | > 100 µM | > 100 µM | > 100 µM | > 100 µM | > 100 µM | > 100 µM | > 100 µM | > 100 µM | > 100 µM | – | – | – | – | – | – | – | – |
| C/C(N=NS(=O)(=O)c1c(C)cc(C)cc1C)=C1\C=CC=CN1O | > 100 µM | > 100 µM | > 100 µM | > 100 µM | – | > 100 µM | > 100 µM | > 100 µM | – | > 100 µM | – | – | – | – | – | – | – | – |
| CCN(CC)CC[n+]1ccc2c(C)c3[nH]c4ccccc4c3c(C)c2c1 | 1.9 µM and 0.925 µM and 2.68 µM | 2.22 µM and 2.24 µM and 4.13 µM | 80.5 µM and 110 µM | 2.39 µM and 1.45 µM and 2.76 µM | 8.83 µM and 8.41 µM and 7.26 µM | 1.65 µM and 2.56 µM and 3.75 µM | – | 3.45 µM and 11.2 µM and 5.33 µM | 4.95 µM | 1.14 µM and 0.847 µM and 1.23 µM | 0.195 µM | 0.394 µM | 1.83 µM | 0.148 µM | 0.491 µM and 0.827 µM and 1.27 µM | 0.365 µM and 1.21 µM and 0.786 µM | – | – |
| O=Cc1c2c(cc3c1CC1(C3)Cc3cc4c(c(C=O)c3C1)CCC4)CCC2 | > 100 µM | > 100 µM | > 100 µM | – | > 100 µM | 62.3 µM | 33.7 µM | > 100 µM | – | – | – | – | – | – | – | – | – | – |
| O=C1CC(c2cccc([N+](=O)[O-])c2)C2(C(=O)NC(=S)NC2=O)C(c2cccc([N+](=O)[O-])c2)C1 (stereo not drawn) | 52.3 µM | > 100 µM | > 100 µM | > 100 µM | – | 60.6 µM | 43.7 µM | > 100 µM | 81.4 µM | > 100 µM | – | – | – | – | – | – | – | – |
| O=C(CCC(NC(=O)OCc1ccccc1)C(=O)OCc1ccccc1)Nc1cccc(OCc2ccccc2)c1 (stereo not drawn) | 46 µM | 57.1 µM | 38.8 µM | > 100 µM | 46.8 µM | > 100 µM | 36.4 µM | 71.1 µM | – | > 100 µM | – | – | – | – | – | – | – | – |
| COc1cccc(C2C(C#N)=C(N)Oc3cc(OCCCCCC[P+](c4ccccc4)(c4ccccc4)c4ccccc4)ccc32)c1 (stereo not drawn) | – | 2.83 µM | 6.14 µM | 1.58 µM | – | – | – | – | – | 2.11 µM | – | 0.624 µM | – | 0.21 µM | – | – | 2.24 µM | 0.433 µM |
| COc1ccc(NCn2nc(CCCCCCCCc3nn(CNc4ccc(OC)cc4)c(=S)o3)oc2=S)cc1 | > 100 µM | > 100 µM | > 100 µM | > 100 µM | > 100 µM | > 100 µM | > 100 µM | – | > 100 µM | > 100 µM | – | – | – | – | – | – | – | – |
| COC(=O)c1c(CC(=O)OC(C)C)cc2n(c1=O)Cc1c-2nc2ccccc2c1OC | > 100 µM | > 100 µM | > 100 µM | – | 99.6 µM | > 100 µM | > 100 µM | > 100 µM | – | > 100 µM | – | – | – | – | – | – | – | – |
| O=c1cc(-c2ccccc2)oc2cc(OCCCCCCCCCCOc3ccc4c(=O)cc(-c5ccccc5)oc4c3)ccc12 | > 100 µM | > 100 µM | > 100 µM | > 100 µM | – | > 100 µM | > 100 µM | > 100 µM | – | > 100 µM | – | – | – | – | – | – | – | – |
| C/C(=N\Nc1nc2cc(F)ccc2s1)c1ccccn1 | > 43.8 µM | 2.23 µM | 2.12 µM | > 23.4 µM | 6.65 µM | 1.46 µM | 13.2 µM | – | 5.84 µM | 4.68 µM | – | – | – | – | – | – | – | – |
| O=C(NNC(=O)c1ccc(Cl)cc1NC(=O)C12CC3CC(CC(C3)C1)C2)c1ccc(Cl)cc1 | > 100 µM | > 100 µM | 35.9 µM | 54.4 µM | 40.3 µM | 55.8 µM | 58.1 µM | 32.7 µM | > 100 µM | – | – | – | – | – | – | – | – | – |
| CCOC(=O)C1=C(N2CCCC2)C(=O)C(C(=O)OCC)C1 (stereo not drawn) | > 100 µM | > 100 µM | > 100 µM | > 100 µM | > 100 µM | – | > 100 µM | > 100 µM | > 100 µM | > 100 µM | – | – | – | – | – | – | – | – |
| Cc1ccc(N2Cc3c(ccc4ccccc34)OP2(=S)N2CCCC2)cc1 (stereo not drawn) | > 100 µM | > 100 µM | > 100 µM | > 100 µM | > 100 µM | > 100 µM | > 100 µM | > 100 µM | – | > 100 µM | – | – | – | – | – | – | – | – |
| C[C@@H]1C[C@@H]2OC(=O)[C@]3(C)[C@H]2[C@@H](OC3(C)O)[C@]2(C)C(=O)C=C[C@@H]12 (stereo partly drawn) | 38.1 µM | 70 µM | 30.2 µM | 58.7 µM | 46 µM | 31.6 µM | 37.6 µM | – | 23.1 µM | > 100 µM | – | – | – | – | – | – | – | – |
| Cc1cc(NS(=O)(=O)c2ccc(Nc3c4ccccc4nc4c(C(=O)NC(CO)(CO)CO)cccc34)cc2)no1 | 78.6 µM | > 100 µM | > 100 µM | 71.4 µM | – | 75.1 µM | – | > 100 µM | 98.9 µM | 55.1 µM | – | – | – | – | – | – | – | – |
| O=C(O)C12C=CC(C1)c1ccccc12 (stereo not drawn) | > 100 µM | > 100 µM | > 100 µM | – | – | > 100 µM | > 100 µM | > 100 µM | – | – | – | – | – | – | – | – | – | – |
| C=C1C(=O)OC2C[C@@]3(C)CCCC(=C)C3CC12 (stereo partly drawn) | 16.7 µM | 26.9 µM | 24.7 µM | 5.94 µM | 10.5 µM | 18.1 µM | 15.2 µM | 33.3 µM | – | 20.1 µM | – | – | – | – | – | – | – | – |
| CN1COCN=C1NC#N | > 100 µM | – | > 100 µM | > 100 µM | – | > 100 µM | > 100 µM | > 100 µM | – | > 100 µM | – | – | – | – | – | – | – | – |
| NCCCNCCSP(=O)(O)O | > 750 µM | > 750 µM | > 645 µM | > 750 µM | > 750 µM | > 750 µM | > 750 µM | > 750 µM | – | > 750 µM | – | – | – | – | – | – | – | – |
| O=Cn1c2ccccc2c2ccccc21 | > 100 µM | > 100 µM | > 100 µM | > 100 µM | > 100 µM | > 100 µM | > 100 µM | > 100 µM | – | – | – | – | – | – | – | – | – | – |
| COc1ccc(/C=C/C(=O)c2cc(CN(C)C)c(O)c(CN(C)C)c2)cc1 | > 100 µM | > 100 µM | > 100 µM | 37.4 µM | > 100 µM | – | > 100 µM | > 100 µM | 72.9 µM | > 100 µM | – | – | – | – | – | – | – | – |
| CC(=O)OC1C2CCC3CC2C2(SCCS2)C31 (stereo not drawn) | > 100 µM | > 100 µM | > 100 µM | > 100 µM | > 100 µM | > 100 µM | > 100 µM | > 100 µM | – | – | – | – | – | – | – | – | – | – |
